Measurements reported in paper PMC9103414 (Journal of pharmacological and toxicological methods, 2022).
Structures can show the parent of a compound that is named as a salt. Where two headings read alike, the source gives them in different places. Marks after values point to notes of the source that are not given here.

Assays:
hNPCs [1] = assay: hNPC viability; format: cell-based, human; details: Fig. 7A
hiPSC-neurons [2] = assay: HCA of synapses; format: cell-based, human
hiPSC-neurons [3] = details: for Neuronal Viability (percentage of live neuronal nuclei), reduction vs DMSO / Neuronal Viability, change vs DMSO: Fig. 1B; for Total Neurite Length (per cm^2 image area), reduction vs DMSO: Fig. 1C; for Neuronal Viability, reduction vs DMSO: Fig. 2D
murine NPCs = details: ref Demir & Laywell, 2015; P. Xu, et al., 2017; cited from earlier work
hNPCs [4] = assay: Microscopic Imaging of Epigenetic Landscapes; format: cell-based, human; details: for Samples classified correctly by discriminant analysis: H3K27me3/H3K27ac and H3K9me3/H3K4me1 confusion matrices, Fig. 7D, E
[5] = cited from earlier work; for Plasma concentrations reach steady state by day: daily dosage, ref Min, et al.; for Cmax: read-out: Plasma Cmax, ref Food and Drug Administration New Drug Applications for each antiretroviral
hiPSC-neurons [6] = assay: Calcium KIC assay; format: cell-based, human; details: each ARV at 10 μM, 7 days; for Calcium transient activity compared to DMSO (traces): Fig. 5, Fig. S1; for Percent active hiPSC-neurons, reduction vs DMSO: Fig. 6D; for Number of active neurons with detectable increases in calcium fluorescence: six wells per condition, Fig. 5 (DMSO: 1034 cells)
hiPSC-microglia = details: cited from earlier work
[7] = system: primary embryonic rat neurons; details: ref Stern, et al., 2018, cited from earlier work; for Number of MAP2+ neurons: 10 μM
[8] = 25 μM (inhibiting myosin activity)
[9] = lower concentrations (0.1, 1 μM), 7 days

In the case of C[C@@H]1CCN(C(=O)CC#N)C[C@@H]1N(C)c1ncnc2[nH]ccc12 [tofacitinib], the “hNPC viability, effect” value (hNPCs [1]; 1 μM) is reported as “not affected”.
For para-nitroblebbistatin, the “Synapse Density, reduction vs DMSO” value (hiPSC-neurons [2]; 25 μM, 7 days, Fig. 3B) was 30%, the “Synapses/Neurite Length, reduction vs DMSO” value (hiPSC-neurons [2]; 25 μM, 7 days, Fig. 3C) was 20% and the “Synapse Density, increase vs DMSO” value (hiPSC-neurons [2]; 25 μM, one day, Fig. 4A) was 20%. The “Neurite length, effect” value (hiPSC-neurons [3]; [8]) was “did not affect”, the “Neuron viability, effect” value (hiPSC-neurons [3]; [8]) was “did not affect” and the “Total Neurite Length, increase vs DMSO” value (hiPSC-neurons [3]; 25 μM, one day, Fig. 2B) was 15%.
In the case of Cc1cn([C@H]2C[C@H](N=[N+]=[N-])[C@@H](CO)O2)c(=O)[nH]c1=O [zidovidine], the “Viability of murine NPCs” value (murine NPCs) is listed as “reduce the viability”.
In the case of CCCc1cc(C)[nH]c(=O)c1CNC(=O)c1cc(-c2ccnc(N3CCN(C)CC3)c2)cc2c1cnn2C(C)C [GSK343], the “Samples classified correctly by discriminant analysis” value (hNPCs [4]; 10 μM) is reported as 100% and the “hNPC viability, reduction vs DMSO” value (hNPCs [1]; 10 μM, three days) is reported as 50%.
In the case of C[C@@H]1CCO[C@H]2Cn3cc(C(=O)NCc4ccc(F)cc4F)c(=O)c(O)c3C(=O)N12 [DTG, dolutegravir], the “Synapses/Neurite Length, reduction vs DMSO” value (hiPSC-neurons [2]; 0.1 μM, 7 days, Fig. 3C) is reported as 20%, the “Synapse Density, reduction vs DMSO” value (hiPSC-neurons [2]; 1 μM, 7 days, Fig. 3B) is reported as 30% and the “Synapses/Neurite Length, reduction vs DMSO” value (hiPSC-neurons [2]; 1 μM, 7 days, Fig. 3C) is reported as 30%. For the same molecule, the “Synapses/Neurite Length, reduction vs DMSO” value (hiPSC-neurons [2]; 10 μM, 7 days, Fig. 3C) was “no effect”, the “Synapse Density, percent difference between ARV treatment and DMSO control” value (hiPSC-neurons [2]; each ARV at 10 μM, 7 days) was −10(NS) percent and the “Neuronal Viability (percentage of live neuronal nuclei), reduction vs DMSO” value (hiPSC-neurons [3]; 10 μM, 7 days) was 30%. The “Total Neurite Length (per cm^2 image area), reduction vs DMSO” value (hiPSC-neurons [3]; 10 μM, 7 days) was 20%, the “Neurite Length per Neuron, increase vs DMSO” value (hiPSC-neurons [3]; 10 μM, 7 days, Fig. 1D) was 20% and the “Total Neurite Length, percent difference between ARV treatment and DMSO control” value (hiPSC-neurons [3]; each ARV at 10 μM, 7 days) was −14(NS) percent. The “Neuronal Viability, reduction vs DMSO” value (hiPSC-neurons [3]; each ARV at 10 μM, 7 days) was 20%, the “Plasma concentrations reach steady state by day” value ([5]; healthy volunteers, 2010) was ≤ 5 days and the “Plasma concentrations reach steady state by day” value ([5]; people with HIV, 2011) was ≤ 7 days. For the same molecule, the Cmax [5] was 8 µM, the “Event Frequency, percent difference between ARV treatment and DMSO control” value (hiPSC-neurons [6]) was −10(NS) percent and the “Mean Peak Amplitude, percent difference between ARV treatment and DMSO control” value (hiPSC-neurons [6]) was −35(NS) percent. The “Percent Active, percent difference between ARV treatment and DMSO control” value (hiPSC-neurons [6]) was −30 ^* percent, the “Calcium transient activity compared to DMSO (traces)” value (hiPSC-neurons [6]) was “less calcium transient activity compared to DMSO” and the “Percent active hiPSC-neurons, reduction vs DMSO” value (hiPSC-neurons [6]) was 30%. The “Number of active neurons with detectable increases in calcium fluorescence” value (hiPSC-neurons [6]) was 716 cells.
With CC(C)OC(=O)OCOP(=O)(CO[C@H](C)Cn1cnc2c(N)ncnc21)OCOC(=O)OC(C)C [TDF, tenofovir disoproxil fumarate] the “Synapses/Neurite Length, reduction vs DMSO” value (hiPSC-neurons [2]; 0.1 μM, 7 days, Fig. 3C) was 20%, the “Synapse Density, reduction vs DMSO” value (hiPSC-neurons [2]; 1 μM, 7 days, Fig. 3B) was 30% and the “Synapses/Neurite Length, reduction vs DMSO” value (hiPSC-neurons [2]; 1 μM, 7 days, Fig. 3C) was 25%. The “Synapse Density, reduction vs DMSO” value (hiPSC-neurons [2]; 10 μM, 7 days, Fig. 3B) was 40%, the “Synapses/Neurite Length, reduction vs DMSO” value (hiPSC-neurons [2]; 10 μM, 7 days, Fig. 3C) was 20% and the “Viability of murine NPCs” value (murine NPCs) was “reduce the viability”. For the same molecule, the “Neuronal Viability (percentage of live neuronal nuclei), reduction vs DMSO” value (hiPSC-neurons [3]; 10 μM, 7 days) was 35%, the “Total Neurite Length (per cm^2 image area), reduction vs DMSO” value (hiPSC-neurons [3]; 10 μM, 7 days) was 20% and the “Neuronal Viability, reduction vs DMSO” value (hiPSC-neurons [3]; each ARV at 10 μM, 7 days) was 30%. The “Neuronal Viability, change vs DMSO” value (hiPSC-neurons [3]; [9]) was “did not observe changes”, the Cmax [5] was 0.6 µM and the “Effect on epigenetic landscape (H3K27me3/H3K27ac and H3K9me3/H3K4me1 MIEL analysis)” value (hNPCs [4]; 10 μM, three days, Fig. 7B–E) was “altered the epigenetic landscape”. The “hNPC viability, reduction vs DMSO” value (hNPCs [1]; 10 μM, three days) was 30%, the “Mean Peak Amplitude, percent difference between ARV treatment and DMSO control” value (hiPSC-neurons [6]) was “+20(NS) percent” and the “Percent Active, percent difference between ARV treatment and DMSO control” value (hiPSC-neurons [6]) was −10(NS) percent. The “Number of active neurons with detectable increases in calcium fluorescence” value (hiPSC-neurons [6]) was 729 cells.
With Nc1nc(=O)n([C@@H]2CS[C@H](CO)O2)cc1F [FTC, emtricitabine] the “Synapses/Neurite Length, reduction vs DMSO” value (hiPSC-neurons [2]; 0.1 μM, 7 days, Fig. 3C) was 20%, the “Synapse Density, reduction vs DMSO” value (hiPSC-neurons [2]; 1 μM, 7 days, Fig. 3B) was 20% and the “Synapses/Neurite Length, reduction vs DMSO” value (hiPSC-neurons [2]; 1 μM, 7 days, Fig. 3C) was 20%. The “Synapse Density, reduction vs DMSO” value (hiPSC-neurons [2]; 10 μM, 7 days, Fig. 3B) was 30%, the “Synapses/Neurite Length, reduction vs DMSO” value (hiPSC-neurons [2]; 10 μM, 7 days, Fig. 3C) was 30% and the “Synapse Density, percent difference between ARV treatment and DMSO control” value (hiPSC-neurons [2]; each ARV at 10 μM, 7 days) was −10(NS) percent. The “Neuronal Viability, change vs DMSO” value (hiPSC-neurons [3]; any tested concentration (0.1, 1, 10 μM), 7 days) was “did not observe changes”, the “Total Neurite Length, percent difference between ARV treatment and DMSO control” value (hiPSC-neurons [3]; each ARV at 10 μM, 7 days) was −6(NS) percent and the Cmax [5] was 7 µM. For the same molecule, the “Mean Peak Amplitude, percent difference between ARV treatment and DMSO control” value (hiPSC-neurons [6]) was −10(NS) percent and the “Number of active neurons with detectable increases in calcium fluorescence” value (hiPSC-neurons [6]) was 1003 cells.
In the case of O=C1Nc2ccc(Cl)cc2[C@@](C#CC2CC2)(C(F)(F)F)O1 [efavirenz], the “Inflammation in hiPSC-microglia” value (hiPSC-microglia) is given as “increased inflammation” and the “Phagocytosis in hiPSC-microglia” value (hiPSC-microglia) is given as “reduced phagocytosis”.
For O=C(CCCCCCC(=O)Nc1ccccc1)NO [SAHA], the “Samples classified correctly by discriminant analysis” value (hNPCs [4]; 3 μM) was 100% and the “hNPC viability, reduction vs DMSO” value (hNPCs [1]; 3 μM) was 45%.
For COc1cc2c(cc1Cc1cccc(Cl)c1F)c(=O)c(C(=O)O)cn2[C@H](CO)C(C)C [EVG, elvitegravir], the “Synapse Density (synapses per cm^2 imaging area), reduction vs DMSO” value (hiPSC-neurons [2]; 0.1 μM, 7 days, Fig. 3B) was 20%, the “Synapses/Neurite Length, reduction vs DMSO” value (hiPSC-neurons [2]; 0.1 μM, 7 days, Fig. 3C) was 25% and the “Synapses/Neurite Length, reduction vs DMSO” value (hiPSC-neurons [2]; 1 μM, 7 days, Fig. 3C) was “no effect”. The “Synapse Density, reduction vs DMSO” value (hiPSC-neurons [2]; 10 μM, 7 days, Fig. 3B) was 75%, the “Synapses/Neurite Length, increase vs DMSO” value (hiPSC-neurons [2]; 10 μM, 7 days, Fig. 3C) was 20% and the “Synapse Density, percent difference between ARV treatment and DMSO control” value (hiPSC-neurons [2]; each ARV at 10 μM, 7 days) was −90 ^*** percent. The “Synapse Density, reduction vs DMSO” value (hiPSC-neurons [2]; each ARV at 10 μM, 7 days, Fig. 4C) was 90%, the “Neuronal Viability (percentage of live neuronal nuclei), reduction vs DMSO” value (hiPSC-neurons [3]; 10 μM, 7 days) was 65% and the “Total Neurite Length (per cm^2 image area), reduction vs DMSO” value (hiPSC-neurons [3]; 10 μM, 7 days) was 80%. For the same molecule, the “Neurite Length per Neuron, lower than DMSO” value (hiPSC-neurons [3]; 10 μM, 7 days, Fig. 1D) was 50%, the “Total Neurite Length, percent difference between ARV treatment and DMSO control” value (hiPSC-neurons [3]; each ARV at 10 μM, 7 days) was −85 ^*** percent and the “Neuronal Viability, reduction vs DMSO” value (hiPSC-neurons [3]; each ARV at 10 μM, 7 days) was 80%. The “Total Neurite Length, reduction vs DMSO” value (hiPSC-neurons [3]; each ARV at 10 μM, 7 days, Fig. 2E) was 85%, the “Neuronal Viability, change vs DMSO” value (hiPSC-neurons [3]; [9]) was “did not observe changes” and the “Event Frequency, percent difference between ARV treatment and DMSO control” value (hiPSC-neurons [6]) was −40 ^** percent. The “Mean Peak Amplitude, percent difference between ARV treatment and DMSO control” value (hiPSC-neurons [6]) was −55 ^** percent, the “Percent Active, percent difference between ARV treatment and DMSO control” value (hiPSC-neurons [6]) was −90 ^*** percent and the “Calcium transient activity compared to DMSO (traces)” value (hiPSC-neurons [6]) was “virtually inactive”. For the same molecule, the “Percent active hiPSC-neurons, reduction vs DMSO” value (hiPSC-neurons [6]) was 90%, the “Calcium transient event frequency, reduction vs DMSO” value (hiPSC-neurons [6]; Fig. 6E) was 40% and the “Calcium transient mean peak amplitude, reduction vs DMSO” value (hiPSC-neurons [6]; Fig. 6F) was 55%. For the same molecule, the “Number of active neurons with detectable increases in calcium fluorescence” value (hiPSC-neurons [6]) was 31 cells, the “Number of MAP2+ neurons” value ([7]; four days) was “significantly reduced the number of MAP2+ neurons” and the “Number of MAP2+ neurons” value ([7]; two days) was “not two days”. For the same molecule, the Neurotoxicity ([7]; 0.1 and 1 μM) was “not neurotoxic”.
